Experimental data published in US12048708B2 (RHOSHAN PHARMACEUTICALS, INC., priority 2017, dated 2024).

Assays:
[1] = Bulk solution stability of ASA in TBA-water system; type: physicochemical; details: 80/20, 70/30 and 60/40 TBA/water solutions, 24-hour storage at ambient storage conditions
Description: For a robust lyophilization process, the drug should not degrade in the bulk solution for lyophilization for at least 24 hours.

[2] = system: platelet aggregation; details: following oral dosing, oral tablet or capsule; cited from earlier work
[3] = Particle size distribution (Malvern Master sizer 2000, dry powder volume distribution); type: physicochemical; details: API used to make the batches
From the text: Additionally, we have measured the particle size distribution of the lyophiles and API. The measurement of particle size (Malvern, Master sizer 2000) of all the samples were done by using dry powder volume distribution method.

[4] = system: rabbit ear vein; assay: IV irritation studies in rabbit ear vein; type: in vivo; details: ASA solution of different osmolalities (300 to 1300 mOsm/kg) injected in rabbit ear vein
From the text: It is an unexpected discovery or finding.

[5] = Lyophilization of aspirin with lysine from water, HPLC analysis; type: physicochemical; details: ASA with lysine in water, 50 mg/ml, pH 6.5, HPLC
Description: The pH of the solution was 4.5. We added an additional amount of lysine to raise the pH of the bulk solution to 6.5. When all the drug was dissolved, a clear solution was formed. […] The product, however, was not lyophilized properly. The lyophilized cake collapsed.

[6] = pH of bulk and reconstituted solutions of ASA lyophilized with bases from TBA/water; type: physicochemical
From the text: The pH of the solution was raised to 6.5 using 1N sodium hydroxide. Phase separation was observed, probably due to salting out of inorganic base from TBA/Water system. In the next trial, we first raised the pH of the solution to 5.0 using 1N sodium hydroxide, and then sodium phosphate, dibasic to raise the pH to 6.5. Sodium phosphate, dibasic was used for a better control of pH. Since we still observed phase separation it appears that inorganic bases or buffers may not be compatible with a 80% TBA/20% water system. We may require more water, for example, 70% TBA/30% water in the system to dissolve the alkalinizing agents.
Inorganic buffers such as sodium phosphate, dibasic, are not soluble in this solvent system.
The reconstituted solution pH was 4.71.
In the next trial, we investigated incorporation of […] to facilitate complete neutralization. […] Arginine was, then, slowly added to the slurry to neutralize aspirin. […] The apparent pH of the bulk solution was 6.49. 5 ml aliquots placed in flint vials and lyophilized. Upon completion of lyophilization, the content of vial was reconstituted with 5 ml of Water for Injection. […] The reconstituted solution pH was 4.8.
Based on the above studies, it was evident that larger amount of base is needed to neutralize ASA in the preferred solvent system. To incorporate more base in the bulk solution, we explored use of 60/40 TBA/water system as solvent for lyophilization. […] The apparent pH of the bulk solution was 6.31. […] The reconstituted solution pH was 4.41. […] We reconstituted the lyophile with 5 ml of buffer solution containing different concentrations of disodium phosphate.

[7] = cited from earlier work

degradation in bulk solution [1]: No appreciable degradation | D50% (μm) [3]: 92.9 μm | D90% (μm) [3]: 249.5 μm | D100% (μm) [3]: 431.0 μm | ASA degraded during the lyophilization process [5]: about 40% | apparent pH of the bulk solution ([6]; 2 g aspirin, 100 mg sodium hydroxide, about 1.6 g arginine in 100 ml 70/30 TBA/water): 6.49 | apparent pH of the bulk solution ([6]; 2 g of ASA and 400 mg sodium hydroxide in 100 ml 60/40 TBA/water): 6.31 | reconstituted solution pH ([6]; lyophile of 2 g aspirin, 100 mg sodium hydroxide, about 1.6 g arginine per 100 ml 70/30 TBA/water, 5 ml aliquot reconstituted with 5 ml Water for Injection): 4.8
Substance: o-acetylsalicylic acid [ASA]
onset of inhibition of platelet aggregation [2]: approximately 40 minutes | IV irritation [4]: no irritation was observed | aqueous solubility [7]: about 3 mg/ml | time to 10% of potency loss ([7]; concentrated bulk solution): about 1.3 hours
